Source: publication PMC9516332 (Frontiers in Oncology, 2022)
Read-outs that look alike come from different tables or passages of the source.

Tests used:
Assay in all cases: Kinase panel profiling at 1 µmol/L (MSA or IMAP), percentage inhibition
Assay type in all cases: biochemical
[1] = target: T1, panel of 255 wild-type kinases (Homo sapiens, UniProt O00141); settings: read-out: %-inhibition at 1 µmol/L, SGK
T1 sequence (O00141 1-431): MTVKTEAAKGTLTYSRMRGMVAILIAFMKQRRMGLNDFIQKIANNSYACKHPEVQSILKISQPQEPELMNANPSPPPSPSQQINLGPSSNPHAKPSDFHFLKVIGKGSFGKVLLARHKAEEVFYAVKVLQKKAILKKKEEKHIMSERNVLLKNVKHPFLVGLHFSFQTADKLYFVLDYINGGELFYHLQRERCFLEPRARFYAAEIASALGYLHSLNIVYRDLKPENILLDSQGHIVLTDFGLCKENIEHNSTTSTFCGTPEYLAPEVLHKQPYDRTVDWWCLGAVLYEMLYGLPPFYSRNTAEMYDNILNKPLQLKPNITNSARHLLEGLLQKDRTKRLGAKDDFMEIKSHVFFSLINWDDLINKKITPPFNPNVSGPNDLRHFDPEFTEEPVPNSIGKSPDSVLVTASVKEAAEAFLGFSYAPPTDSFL

[2] = target: T2, panel of 255 wild-type kinases (Homo sapiens, UniProt O14757); settings: read-out: %-inhibition CHK1
T2 sequence (O14757 1-476): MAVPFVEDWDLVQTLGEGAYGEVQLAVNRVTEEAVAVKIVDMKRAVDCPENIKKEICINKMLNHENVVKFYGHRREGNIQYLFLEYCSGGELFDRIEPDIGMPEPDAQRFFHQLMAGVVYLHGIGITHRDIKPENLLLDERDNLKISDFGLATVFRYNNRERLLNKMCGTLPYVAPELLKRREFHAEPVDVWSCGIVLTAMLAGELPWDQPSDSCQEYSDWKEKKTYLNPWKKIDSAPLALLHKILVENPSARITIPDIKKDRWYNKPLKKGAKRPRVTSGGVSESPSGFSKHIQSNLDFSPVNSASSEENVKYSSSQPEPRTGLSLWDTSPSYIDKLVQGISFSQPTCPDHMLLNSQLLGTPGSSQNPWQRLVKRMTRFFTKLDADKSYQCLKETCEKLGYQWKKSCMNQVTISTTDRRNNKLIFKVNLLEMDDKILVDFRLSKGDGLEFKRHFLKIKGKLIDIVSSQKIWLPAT

[3] = target: panel of 255 wild-type kinases (Homo sapiens, UniProt P09619); settings: read-out: %-inhibition at 1 µmol/L, PDGFRβ
[4] = target: panel of 255 wild-type kinases (Homo sapiens, UniProt P48729); settings: read-out: %-inhibition at 1 µmol/L, CK1α
[5] = target: T3, panel of 255 wild-type kinases (Homo sapiens, UniProt Q9HBY8); settings: read-out: %-inhibition at 1 µmol/L, SGK2
T3 sequence (Q9HBY8 1-367): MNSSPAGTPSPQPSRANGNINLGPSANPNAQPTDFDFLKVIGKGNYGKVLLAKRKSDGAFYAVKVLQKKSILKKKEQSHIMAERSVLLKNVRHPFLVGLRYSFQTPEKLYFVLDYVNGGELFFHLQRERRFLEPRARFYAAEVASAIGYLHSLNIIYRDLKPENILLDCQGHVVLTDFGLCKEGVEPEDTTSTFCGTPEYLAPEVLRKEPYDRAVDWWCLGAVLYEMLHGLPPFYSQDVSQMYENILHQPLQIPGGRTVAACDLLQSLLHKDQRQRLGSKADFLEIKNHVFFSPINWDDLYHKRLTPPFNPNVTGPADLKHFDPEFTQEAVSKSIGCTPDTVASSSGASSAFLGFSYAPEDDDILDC

[6] = target: panel of 255 wild-type kinases (Homo sapiens, UniProt P12931); settings: read-out: %-inhibition at 1 µmol/L, SRC
[7] = target: panel of 255 wild-type kinases (Homo sapiens, UniProt Q07912); settings: read-out: %-inhibition ACK
[8] = target: panel of 255 wild-type kinases (Homo sapiens, UniProt P08631); settings: read-out: %-inhibition at 1 µmol/L, HCK
[9] = target: panel of 255 wild-type kinases (Homo sapiens, UniProt P17948); settings: read-out: %-inhibition at 1 µmol/L, FLT1
[10] = kinase SGK, 1 µmol/L single concentration
[11] = CHK1 kinase assay, 1 µmol/L single concentration
[12] = kinase PDGFRβ, 1 µmol/L single concentration
[13] = kinase CK1α, 1 µmol/L single concentration
[14] = kinase SGK2, 1 µmol/L single concentration
[15] = kinase SRC, 1 µmol/L single concentration
[16] = ACK kinase assay, 1 µmol/L single concentration
[17] = kinase HCK, 1 µmol/L single concentration
[18] = kinase FLT1, 1 µmol/L single concentration

Compound | inhibition at 1 µM [1, 10] [%] | inhibition at 1 µM [2, 11] [%] | inhibition at 1 µM [3, 12] [%] | inhibition at 1 µM [4, 13] [%] | inhibition at 1 µM [5, 14] [%] | inhibition at 1 µM [6, 15] [%] | inhibition at 1 µM [7, 16] [%] | inhibition at 1 µM [8, 17] [%] | inhibition at 1 µM [9, 18] [%] | inhibition at 1 µM [1] [%] | inhibition at 1 µM [2] [%] | inhibition at 1 µM [3] [%] | inhibition at 1 µM [4] [%] | inhibition at 1 µM [5] [%] | inhibition at 1 µM [6] [%] | inhibition at 1 µM [7] [%] | inhibition at 1 µM [8] [%] | inhibition at 1 µM [9] [%]
Cn1cc(-c2cc3c(N4CCN(c5ncc([C@@](C)(N)c6ccc(F)cc6)cn5)CC4)ncnn3c2)cn1 [avapritinib] | 0.775 | 40 | 95 | 5 | -4.22 | 66 | 73 | 52 | 76 | – | – | – | – | – | – | – | – | –
CNC(=O)c1ccc(-c2cnc3ncc(Cc4ccc5ncccc5c4)n3n2)cc1F [capmatinib] | – | – | – | – | – | – | – | – | – | -0.731 | 0.209 | 20 | -5.42 | -5.54 | -1.77 | 1 | -1.63 | 5.7
COc1cc2ncnc(Nc3ccc(F)c(Cl)c3)c2cc1NC(=O)/C=C/CN1CCCCC1 [dacomitinib] | -6 | 10 | 68 | 8 | -9 | 44 | 32 | 57 | 20 | – | – | – | – | – | – | – | – | –
C[C@H](Nc1ncnc2nc[nH]c12)c1cc2cccc(Cl)c2c(=O)n1-c1ccccc1 [duvelisib] | -3.47 | 5.69 | 2 | -2 | -2.27 | -1.74 | 2.28 | 6 | 7.43 | – | – | – | – | – | – | – | – | –
COC(=O)N[C@@H](C)CNc1nccc(-c2cn(C(C)C)nc2-c2cc(Cl)cc(NS(C)(=O)=O)c2F)n1 [encorafenib] | 7 | 14 | 1.38 | 36 | 3.5 | -2.16 | -4.66 | -5.46 | 17 | – | – | – | – | – | – | – | – | –
CN1CCN(c2ccc(C(=O)Nc3n[nH]c4ccc(Cc5cc(F)cc(F)c5)cc34)c(NC3CCOCC3)c2)CC1 [entrectinib] | -5.65 | 14 | – | – | -3.18 | 95 | – | 91 | 76 | – | – | – | – | – | – | – | – | –

More lines, main results first:

inhibition at 1 µM [1, 10] [%] | inhibition at 1 µM [2, 11] [%] | inhibition at 1 µM [3, 12] [%] | inhibition at 1 µM [4, 13] [%] | inhibition at 1 µM [5, 14] [%] | inhibition at 1 µM [6, 15] [%] | inhibition at 1 µM [7, 16] [%] | inhibition at 1 µM [8, 17] [%] | inhibition at 1 µM [9, 18] [%] | Compound | inhibition at 1 µM [1] [%] | inhibition at 1 µM [2] [%] | inhibition at 1 µM [3] [%] | inhibition at 1 µM [4] [%] | inhibition at 1 µM [5] [%] | inhibition at 1 µM [6] [%] | inhibition at 1 µM [7] [%] | inhibition at 1 µM [8] [%] | inhibition at 1 µM [9] [%]
-5.64 | 11 | 0.0362 | -14 | -2 | 3.29 | 5.5 | 4.56 | 3 | Cc1nc(NC(=O)N2CCC[C@H]2C(N)=O)sc1-c1ccnc(C(C)(C)C(F)(F)F)c1 [alpelisib] | – | – | – | – | – | – | – | – | –
5 | 9 | -2.23 | 9 | -0.294 | -0.525 | -4 | -8 | 10 | Cn1cnc2c(F)c(Nc3ccc(Br)cc3F)c(C(=O)NOCCO)cc21 [binimetinib] | – | – | – | – | – | – | – | – | –
